{
  "source": "patent US20060205826A1",
  "about": "“Method of using carotenoids in the prevention of cognitive decline and for other neuroprotection functions” (priority 2005, published 2006)",
  "key": {"hippocampal stem cells": {"test_system": "hippocampal stem cells", "test": "Hippocampal neurogenesis (BrdU immunostaining, cell counting) in diabetic mice", "assay_type": "in vivo", "conditions": "two weeks after the induction of diabetes, preliminary data", "excerpt": "All animals were killed with a barbiturate overdose; each group had n>8. After intracardial perfusion with 4% paraformaldehyde, brains were cut into 40-μm-thick sections (200 μm, 1 every sixth section, used for electron microscopy analysis) with a vibratome (Leica VT100M).\nSections were immersed free-floating in 0.1 M phosphate buffer plus 0.05 % sodium azide. Twenty-four-well plates were used to keep the sections separate and preserve the order of the series. Sections that were 40 μm thick were used for cell counting. Incubations were performed in 0.1 M phosphate buffer with 0.2% Triton X-100 and 10% normal goat serum. Sections were blocked by incubating for 30 min in a solution of 3% hydrogen peroxide for diaminobenzidine (Sigma) staining. BrdU immunohistochemistry was preceded with DNA denaturation of 25 min of incubation in 2 M HCl at 37° C. The primary antibodies used were 1:200 mouse anti-BrdU (Dako). […]\nCell Counting. BrdU-positive cells were counted in sections spaced 400 μm apart by using a Nikon Eclipse E200 with a Nikon 40X Plan objective (0.65 numerical aperture) throughout the granule cell layer. […] Data were expressed as total, for the whole structure, and also subanalyzed in three regions: anterior, middle, and posterior."}, "GPx activity": {"test_system": "GPx activity", "conditions": "diabetic animals; Miranda et al., 2004; cited from earlier work"}, "[1]": {"test_system": "MDA, a lipid peroxidation product", "test": "MDA concentration by liquid chromatography in serum, eye and hippocampus of diabetic mice", "assay_type": "in vivo", "experimental": "(§1) Male albino mice were used throughout the study, housed in a environmentally regulated room on a dark-light cycle of 12 hours with free access to food and water. Principles of laboratory animal care (NIH publication no. 85-23, revised 1985) were followed, as well as specific Spanish regulations. Animals were made diabetic with a single subcutaneous injection of 200 mg alloxan/kg body weight (66 mg/ml) in 0.1 M citrate buffer, pH 4.5, at day 0 of the experiment. Control mice were injected with the same volume of vehicle also at day 0 of the experiment.\nMice were identified as diabetic on the basis of blood glucose levels (higher than 16 mM at least 4 days after alloxan treatment). Animals were divided into subgroups as required by the experiment (control, control+lutein, diabetic, diabetic+lutein, diabetic+insulin, diabetic+insulin+lutein). […] Insulin treated animals were injected daily with 500 mU/g body weight since day 4 until the end of the experiment. Mice were killed by cervical dislocation on day 14, and hippocampus and retina were removed and homogenized in pre-chilled 0.2 M potassium phosphate buffer, pH 7.0. These homogenates were used to assay protein, GPx activity and MDA and GSH concentrations. Samples were kept frozen (−80° C.) until biochemical assays were performed. Blood was taken from the tail vein daily to assay blood glucose levels. Glycated hemoglobin was determined in blood samples obtained by heart puncture immediately before killing the animals.\nMDA, a lipid peroxidation product, concentration was measured by liquid chromatography according to a modification of the method of Richard et al. (1992) as previously described (Romero et al., 1998). Briefly, 0.1 ml of sample (or standard solutions prepared daily from 1,1,3,3-tetramethoxypropane) and 0.75 ml of working solution (thiobarbituric acid 0.37% and perchloric acid 6.4%; 2/1, v/v) were mixed and heated to 95° C. for 1 h. After cooling (10 min in ice water bath), the flocculent precipitate was removed by centrifugation at 3,200×g for 10 min. The supernatant was neutralized and filtered (0.22 μm) prior to injection on an ODS column 5 μm column (250×4.6 mm). Mobile phase consisted in 50 mM phosphate buffer (pH 6.0): methanol (58:42, v/v). Isocratic separation was performed with 1.0 ml/min flow (HPLC System 325, Kontron) and detection at 532 nm (UV/VIS HPLC Detector 332, Kontron). Calibration curves were run daily."}, "GSH": {"test_system": "GSH", "test": "GSH content in hippocampus homogenate of diabetic mice", "assay_type": "in vivo", "conditions": "lutein 0.2 mg/kg p.o. or insulin 500 mU/g s.c. on days 4-13", "experimental": "as §1\nMice were identified as diabetic on the basis of blood glucose levels (higher than 16 mM at least 4 days after alloxan treatment). Animals were divided into subgroups as required by the experiment (control, control+lutein, diabetic, diabetic+lutein, diabetic+insulin, diabetic+insulin+lutein). Lutein was administered daily at a dose of 0.2 mg/kg p.o since day 4 after alloxan or citrate buffer injection until the end of the experiment. […] Glycated hemoglobin was determined in blood samples obtained by heart puncture immediately before killing the animals.\nThe GSH content of eye homogenate was quatitated by the method of Reed et al. (Reed et al., 1980). […] These products are quickly separated by HPLC which allows the quantification of nanomolars levels of GSH."}, "[2]": {"conditions": "lutein 100 mg/kg p.o. or insulin 500 mU/g body weight s.c. on days 4-13"}},
  "note": "Entries after “also recorded” stand apart in the source; their conditions may differ.",
  "data": [
    {"smiles": "CC1=C[C@H](O)CC(C)(C)[C@H]1/C=C/C(C)=C/C=C/C(C)=C/C=C/C=C(C)/C=C/C=C(C)/C=C/C1=C(C)C[C@@H](O)CC1(C)C", "note": "[Lutein]", "values": [
      {"measurement": "proliferation of hippocampal stem cells", "setting": "hippocampal stem cells", "result": "able to prevent the impairment in proliferation; also recorded: able to restore this alteration"},
      {"measurement": "glutathione peroxidase activity of the retinas", "setting": "GPx activity", "result": "restored"},
      {"measurement": "MDA levels in hippocampus", "setting": "[1]; lutein 0.2 mg/kg p.o. or insulin 500 mU/g body weight s.c. on days 4-13", "result": "restored"},
      {"measurement": "MDA levels in hippocampus", "setting": "[1]; lutein 0.2 mg/kg p.o. or insulin 500 mU/g body weight s.c. on days 4-13, listed as lutein", "result": "able to prevent this effect"},
      {"measurement": "MDA levels in ocular tissue", "setting": "[1]; [2]", "result": "restored"},
      {"measurement": "MDA levels in serum", "setting": "[1]; [2]", "result": "restored"},
      {"measurement": "MDA levels in ocular tissue", "setting": "[1]; lutein 100 mg/kg p.o. or insulin 500 mU/g body weight s.c. on days 4-13, listed as lutein", "result": "able to prevent this effect"},
      {"measurement": "GSH content in hippocampus homogenate", "setting": "GSH", "result": "restored"}
    ]}
  ]
}
